Test results published in patent US20190133128A1, “Fungicidal pyridazinones” (FMC Corporation, priority 2017, published 2019).

Legend:
Format in all cases: in vivo
Plasmopara viticola = test: Test B: preventive spray on grape seedlings, grape downy mildew, disease rating
Source text: General protocol for preparing test solutions for Tests AG: the test compounds were first dissolved in acetone in an amount equal to 3% of the final volume and then suspended at the desired concentration (in ppm) in acetone and purified water (50/50 mix by volume) containing the surfactant PEG400 (polyhydric alcohol esters). The resulting test suspensions were then used in Tests AG. Compounds were sprayed at a concentration of 250 ppm or other indicated rate to the point of run-off on the test plants. The test solution was sprayed to the point of run-off on grape seedlings. […] A dash (-) indicates no test results.

Botrytis cinerea = test: Test C: preventive spray on tomato seedlings, gray mold, visual disease rating; conditions: for pest or weed control at 250 ppm: Botrytis cinerea
Outline: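 Tomato seedlings received a run-off spray, typically 250 ppm (or stated rate), ahead of gray mold inoculation and visual scoring. Test suspensions: acetone stock (3% of volume) diluted into 1:1 acetone/water containing PEG400.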

Phytophthora infestans = test: whole plant or invertebrate; conditions: for pest or weed control at 250 ppm: Phytophthora infestans, in Solanum lycopersicum, read-out: Test D disease control rating; for Test D disease control rating: tomato seedlings
Zymoseptoria tritici = test: Test E: preventive spray on wheat seedlings, wheat leaf blotch, visual disease rating; conditions: for pest or weed control at 250 ppm: Zymoseptoria tritici
Outline: (§1)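 Preventive foliar spray of wheat seedlings to run-off, at 250 ppm or other indicated rate. Compounds dissolved in acetone (3% of final volume), suspended in 50/50 acetone–water with PEG400 surfactant. Disease rated visually.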

[1] = test system: Puccinia recondita f. sp. tritici; test: Test F: preventive spray on wheat seedlings, wheat leaf rust, visual disease rating; conditions: for pest or weed control at 250 ppm: Puccinia recondita
Outline: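 Preventive test: wheat seedlings were sprayed to run-off with compound suspended in acetone/water 50/50 plus PEG400 (250 ppm or other indicated rate). One day later they received Puccinia recondita f. sp. tritici spores, and disease was scored visually.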

[2] = test system: Erysiphe graminis f. sp. tritici; test: Test G: preventive spray on wheat seedlings, wheat powdery mildew, visual disease rating; conditions: for pest or weed control at 250 ppm: Blumeria graminis, 192 h
Outline: as §1

Phakopsora pachyrhizi = test: Test A: preventive spray on soybean seedlings, Asian soybean rust, visual disease rating; conditions: 250 ppm, 100 = 100% disease control, 0 = no control
[3] = 250 ppm, 100 = 100% disease control, 0 = no control

Row | Compound | Test B disease control rating (Plasmopara viticola; [3]) [%] | Test C disease control rating (Botrytis cinerea; [3]) [%] | Test D disease control rating (Phytophthora infestans; [3]) [%] | Test E disease control rating (Zymoseptoria tritici; [3]) [%] | Test F disease control rating [1, 3] [%] | Test G disease control rating [2, 3] [%] | further results
1 | Cn1ncc(O)c(C(=O)Nc2ccc(C(F)(F)F)cc2)c1=O [Compound 2, 2,3-Dihydro-5-hydroxy-2-methyl-3-oxo-N-[4-(trifluoromethyl)phenyl]-4-pyridazinecarboxamide] | 97 | – | – | – | – | – | pest or weed control at 250 ppm (Botrytis cinerea; [3]): 0%; pest or weed control at 250 ppm (Phytophthora infestans): 99%; pest or weed control at 250 ppm (Zymoseptoria tritici; [3]): 97%; pest or weed control at 250 ppm [1, 3]: 100%; pest or weed control at 250 ppm [2, 3]: 97%
2 | Cn1ncc(O)c(C(=O)Nc2ccc(Cl)nc2)c1=O [Compound 6] | 85 | 99 | 88 | 57 | 99 | 0 | –
3 | Cc1nnc(NC(=O)c2c(O)cnn(C)c2=O)s1 [Compound 13] | 65 | 0 | 0 | 0 | 0 | 0 | –
4 | Cn1ncc(O)c(C(=O)Nc2ccc(OC(F)(F)F)cc2)c1=O [Compound 21, 2,3-Dihydro-5-hydroxy-2-methyl-3-oxo-N-[4-(trifluoromethoxy)phenyl]-4-pyridazinecarboxamide] | 93 | – | – | – | – | – | pest or weed control at 250 ppm (Botrytis cinerea; [3]): 0%; pest or weed control at 250 ppm (Phytophthora infestans): 97%; pest or weed control at 250 ppm (Zymoseptoria tritici; [3]): 98%; pest or weed control at 250 ppm [1, 3]: 99%; pest or weed control at 250 ppm [2, 3]: 98%
5 | Cn1nc(-c2ccccc2)c(O)c(C(=O)Nc2ccccc2C(F)(F)F)c1=O [Compound 26] | 49 | 0 | 58 | 0 | 68 | 84 | –
6 | Cn1ncc(O)c(C(=O)Nc2ccc(Cl)cc2Cl)c1=O [Compound 37] | 86 | 0 | 95 | 51 | 94 | 76 | –
7 | Cn1ncc(O)c(C(=O)Nc2ncc(Cl)cn2)c1=O [Compound 38] | 20 | 0 | 0 | 0 | 68 | 0 | –
8 | Cn1ncc(O)c(C(=O)NC2CCCCC2)c1=O [Compound 39] | 70 | 0 | 0 | 0 | 0 | 69 | –
9 | Cn1ncc(O)c(C(=O)Nc2ncccc2Cl)c1=O [Compound 45] | 88 | 99 | 94 | 0 | 98 | 0 | –
10 | CC(=O)Oc1cnn(C)c(=O)c1C(=O)N(C(C)=O)c1ccc(OC(F)(F)F)cc1 [Compound 84] | – | – | – | – | – | – | Test B disease control rating (Plasmopara viticola; 280 ppm): 99%; Test C disease control rating (Botrytis cinerea; 280 ppm): 0%; Test D disease control rating (Phytophthora infestans; 280 ppm): 100%; Test E disease control rating (Zymoseptoria tritici; 280 ppm): 100%; Test F disease control rating ([1]; 280 ppm): 100%; Test G disease control rating ([2]; 280 ppm): 99%
11 | CCCC(=O)Oc1cnn(C)c(=O)c1C(=O)Nc1ccc(OC(F)(F)F)cc1 [Compound 87] | 100 | 0 | – | 100 | 100 | 99 | –
12 | COC(=O)N(C(=O)c1c(OC(C)=O)cnn(C)c1=O)c1ccc(OC(F)(F)F)cc1 [Compound 88] | – | – | – | – | – | – | Test B disease control rating (Plasmopara viticola; 50 ppm): 91%; Test C disease control rating (Botrytis cinerea; 50 ppm): 0%; Test D disease control rating (Phytophthora infestans; 50 ppm): 57%; Test E disease control rating (Zymoseptoria tritici; 50 ppm): 32%; Test F disease control rating ([1]; 50 ppm): 83%; Test G disease control rating ([2]; 50 ppm): 89%
13 | Cn1ncc2oc(=O)n(-c3ccc(OC(F)(F)F)cc3)c(=O)c2c1=O [Compound 89, 6-Methyl-3-[4-(trifluoromethoxy)phenyl]-2H-pyridazino[4,5-e]-1,3-oxazine-2,4,5(3H,6H)-trione] | 99 | – | – | – | – | – | pest or weed control at 250 ppm (Botrytis cinerea; [3]): 0%; pest or weed control at 250 ppm (Phytophthora infestans): 67%; pest or weed control at 250 ppm (Zymoseptoria tritici; [3]): 97%; pest or weed control at 250 ppm [1, 3]: 99%; pest or weed control at 250 ppm [2, 3]: 61%
14 | COc1ccc(NC(=O)c2c(O)cnn(C)c2=O)cc1 [Compound 92] | 92 | 99 | 68 | 59 | 89 | 35 | –
15 | Cn1ncc(OS(C)(=O)=O)c(C(=O)Nc2ccccc2-c2cc(F)c(F)c(F)c2)c1=O [Compound 103] | – | 0 | 0 | 96 | 90 | 73 | Test A disease control rating (Phakopsora pachyrhizi): 84%
16 | Cn1ncc(OS(C)(=O)=O)c(C(=O)Nc2ccccc2F)c1=O [Compound 104] | – | 0 | 0 | 94 | 89 | 65 | Test A disease control rating (Phakopsora pachyrhizi): 87%
17 | Cc1cccc(NC(=O)c2c(OS(C)(=O)=O)cnn(C)c2=O)c1 [Compound 105] | – | 0 | 33 | 86 | 86 | 0 | Test A disease control rating (Phakopsora pachyrhizi): 86%
18 | Cn1ncc(OS(C)(=O)=O)c(C(=O)Nc2ccc(Oc3ccccc3)cc2)c1=O [Compound 106] | – | 0 | 85 | 83 | 86 | 81 | Test A disease control rating (Phakopsora pachyrhizi): 98%
19 | COc1cccc(NC(=O)c2c(OS(C)(=O)=O)cnn(C)c2=O)c1 [Compound 108] | – | 0 | 0 | 0 | 68 | 0 | Test A disease control rating (Phakopsora pachyrhizi): 0%
20 | Cc1ccc(S(=O)(=O)Oc2cnn(C)c(=O)c2C(=O)Nc2ccc(OC(F)(F)F)cc2)cc1 [Compound 112] | – | 0 | 46 | 43 | 95 | 0 | Test A disease control rating (Phakopsora pachyrhizi): 25%
21 | Cn1ncc(O)c(C(=O)Nc2c(Cl)cc(Cl)cc2Cl)c1=O [Compound 118] | 71 | 0 | 100 | – | 86 | 97 | –
22 | Cc1cc(OC(F)(F)F)ccc1NC(=O)c1c(O)cnn(C)c1=O [Compound 124] | 99 | 0 | 99 | – | 99 | 99 | –
23 | Cn1ncc(O)c(C(=O)Nc2ccccc2OC(F)(F)F)c1=O [Compound 126] | 95 | 0 | – | 82 | 89 | 93 | –
24 | CCCC(=O)Oc1cnn(C)c(=O)c1C(=O)N(C(=O)CCC)c1ccc(OC(F)(F)F)cc1 [Compound 139] | 100 | 0 | 0 | – | 100 | 100 | –
25 | Cn1ncc(O)c(C(=O)Nc2ccc(F)cc2C(F)(F)F)c1=O [Compound 145] | 100 | 0 | – | 99 | 99 | 99 | –
26 | Cn1ncc(O)c(C(=O)Nc2ccc(OC(F)(F)F)cc2C(F)(F)F)c1=O [Compound 148] | 79 | 0 | – | 79 | 86 | 98 | –
27 | Cn1ncc(Cl)c(C(=O)Nc2ccc(Br)cc2)c1=O [Compound 149] | – | 0 | 68 | 0 | 99 | 0 | Test A disease control rating (Phakopsora pachyrhizi): 92%
